Assay results reported in PubChem BioAssay (NCI).
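Five compound concentrations were applied to cells in 96-well plates for 48 hours; endpoints were derived by simple linear interpolation of the resulting dose-response curve. Abbreviation: GI50, concentration required for 50% inhibition of growth. Definition used: TGI = concentration required for complete inhibition of growth.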

Columns and labels:
Experiment in all cases: NCI anticancer screen, dose series, 48 h
NCI/ADR-RES ovarian = test system: NCI/ADR-RES ovarian
SK-OV-3 ovarian = test system: SK-OV-3 ovarian
HL-60(TB) leukemia = test system: HL-60(TB) leukemia
EKVX NSCLC = test system: EKVX NSCLC
IGROV1 ovarian = test system: IGROV1 ovarian
K-562 leukemia = test system: K-562 leukemia
MDA-MB-231 breast = test system: MDA-MB-231 breast
786-0 renal = test system: 786-0 renal
MOLT-4 leukemia = test system: MOLT-4 leukemia
UACC-257 melanoma = test system: UACC-257 melanoma
SR leukemia = test system: SR leukemia
SN12C renal = test system: SN12C renal
CAKI-1 renal = test system: CAKI-1 renal
NCI-H522 lung = test system: NCI-H522 lung
COLO 205 colon = test system: COLO 205 colon
TK-10 renal = test system: TK-10 renal
OVCAR-5 ovarian = test system: OVCAR-5 ovarian
NCI-H23 lung = test system: NCI-H23 lung
HCT-116 colon = test system: HCT-116 colon
SNB-19 CNS = test system: SNB-19 CNS
U251 CNS = test system: U251 CNS
MDA-MB-435 = test system: MDA-MB-435
UO-31 renal = test system: UO-31 renal
OVCAR-8 ovarian = test system: OVCAR-8 ovarian
SW-620 colon = test system: SW-620 colon
HCC-2998 colon = test system: HCC-2998 colon
A549 NSCLC = test system: A549 NSCLC
HCT-15 colon = test system: HCT-15 colon
SK-MEL-28 melanoma = test system: SK-MEL-28 melanoma
HS 578T breast = test system: HS 578T breast
T-47D breast = test system: T-47D breast
SNB-75 CNS = test system: SNB-75 CNS
OVCAR-3 ovarian = test system: OVCAR-3 ovarian
ACHN renal = test system: ACHN renal
NCI-H226 lung = test system: NCI-H226 lung
KM12 colon = test system: KM12 colon
SF-539 CNS = test system: SF-539 CNS
MALME-3M melanoma = test system: MALME-3M melanoma
NCI-H460 lung = test system: NCI-H460 lung
RPMI-8226 leukemia = test system: RPMI-8226 leukemia
RXF 393 renal = test system: RXF 393 renal
DU-145 prostate = test system: DU-145 prostate
UACC-62 melanoma = test system: UACC-62 melanoma
MCF7 breast = test system: MCF7 breast
BT-549 breast = test system: BT-549 breast
CCRF-CEM leukemia = test system: CCRF-CEM leukemia
A498 renal = test system: A498 renal
HT29 colon = test system: HT29 colon
SF-268 CNS = test system: SF-268 CNS
SF-295 CNS = test system: SF-295 CNS
LOX IMVI melanoma = test system: LOX IMVI melanoma
M14 melanoma = test system: M14 melanoma
HOP-62 NSCLC = test system: HOP-62 NSCLC
PC-3 prostate = test system: PC-3 prostate
SK-MEL-5 melanoma = test system: SK-MEL-5 melanoma
HOP-92 NSCLC = test system: HOP-92 NSCLC
OVCAR-4 ovarian = test system: OVCAR-4 ovarian
SK-MEL-2 melanoma = test system: SK-MEL-2 melanoma

Q: What does the source list for `N#Cc1c(Br)n(C2OC(CO)C(O)C2O)c2ncn3ccnc3c12` (stereo unspecified)?
A: GI50 (NCI/ADR-RES ovarian): > 100 µM; TGI (NCI/ADR-RES ovarian): > 100 µM; GI50 (SK-OV-3 ovarian): > 100 µM; TGI (SK-OV-3 ovarian): > 100 µM; GI50 (HL-60(TB) leukemia): > 100 µM; TGI (HL-60(TB) leukemia): > 100 µM; GI50 (EKVX NSCLC): > 100 µM; TGI (EKVX NSCLC): > 100 µM; GI50 (IGROV1 ovarian): 81.9 µM; TGI (IGROV1 ovarian): > 100 µM; GI50 (K-562 leukemia): 62.4 µM; TGI (K-562 leukemia): > 100 µM; GI50 (MDA-MB-231 breast): > 100 µM; TGI (MDA-MB-231 breast): > 100 µM; GI50 (786-0 renal): > 100 µM; TGI (786-0 renal): > 100 µM; GI50 (MOLT-4 leukemia): 41.9 µM; TGI (MOLT-4 leukemia): > 100 µM; GI50 (UACC-257 melanoma): > 100 µM; TGI (UACC-257 melanoma): > 100 µM; GI50 (SR leukemia): 50.7 µM; TGI (SR leukemia): > 100 µM; GI50 (SN12C renal): > 100 µM; TGI (SN12C renal): > 100 µM; GI50 (CAKI-1 renal): > 100 µM; TGI (CAKI-1 renal): > 100 µM; GI50 (NCI-H522 lung): > 100 µM; TGI (NCI-H522 lung): > 100 µM; GI50 (COLO 205 colon): 55.1 µM; TGI (COLO 205 colon): > 100 µM; GI50 (TK-10 renal): > 100 µM; TGI (TK-10 renal): > 100 µM; GI50 (OVCAR-5 ovarian): > 100 µM; TGI (OVCAR-5 ovarian): > 100 µM; GI50 (NCI-H23 lung): > 100 µM; TGI (NCI-H23 lung): > 100 µM; GI50 (HCT-116 colon): 46.8 µM; TGI (HCT-116 colon): > 100 µM; GI50 (SNB-19 CNS): > 100 µM; TGI (SNB-19 CNS): > 100 µM; GI50 (U251 CNS): > 100 µM; TGI (U251 CNS): > 100 µM; GI50 (MDA-MB-435): > 100 µM; TGI (MDA-MB-435): > 100 µM; GI50 (UO-31 renal): 53.6 µM; TGI (UO-31 renal): > 100 µM; GI50 (OVCAR-8 ovarian): 52.3 µM; TGI (OVCAR-8 ovarian): > 100 µM; GI50 (SW-620 colon): 44.1 µM; TGI (SW-620 colon): > 100 µM; GI50 (HCC-2998 colon): > 100 µM; TGI (HCC-2998 colon): > 100 µM; GI50 (A549 NSCLC): > 100 µM; TGI (A549 NSCLC): > 100 µM; GI50 (HCT-15 colon): > 100 µM; TGI (HCT-15 colon): > 100 µM; GI50 (SK-MEL-28 melanoma): > 100 µM; TGI (SK-MEL-28 melanoma): > 100 µM; GI50 (HS 578T breast): > 100 µM; TGI (HS 578T breast): > 100 µM; GI50 (T-47D breast): > 100 µM; TGI (T-47D breast): > 100 µM; GI50 (SNB-75 CNS): > 100 µM; TGI (SNB-75 CNS): > 100 µM; GI50 (OVCAR-3 ovarian): > 100 µM; TGI (OVCAR-3 ovarian): > 100 µM; GI50 (ACHN renal): 57.6 µM; TGI (ACHN renal): > 100 µM; GI50 (NCI-H226 lung): 40.6 µM; TGI (NCI-H226 lung): > 100 µM; GI50 (KM12 colon): > 100 µM; TGI (KM12 colon): > 100 µM; GI50 (SF-539 CNS): > 100 µM; TGI (SF-539 CNS): > 100 µM; GI50 (MALME-3M melanoma): > 100 µM; TGI (MALME-3M melanoma): > 100 µM; GI50 (NCI-H460 lung): 40.7 µM; TGI (NCI-H460 lung): > 100 µM; GI50 (RPMI-8226 leukemia): > 100 µM; TGI (RPMI-8226 leukemia): > 100 µM; GI50 (RXF 393 renal): 86.7 µM; TGI (RXF 393 renal): > 100 µM; GI50 (DU-145 prostate): 69.5 µM; TGI (DU-145 prostate): > 100 µM; GI50 (UACC-62 melanoma): > 100 µM; TGI (UACC-62 melanoma): > 100 µM; GI50 (MCF7 breast): > 100 µM; TGI (MCF7 breast): > 100 µM; GI50 (BT-549 breast): > 100 µM; TGI (BT-549 breast): > 100 µM; GI50 (CCRF-CEM leukemia): > 100 µM; TGI (CCRF-CEM leukemia): > 100 µM; GI50 (A498 renal): 19.9 µM; TGI (A498 renal): > 100 µM; GI50 (HT29 colon): 65.3 µM; TGI (HT29 colon): > 100 µM; GI50 (SF-268 CNS): 58 µM; TGI (SF-268 CNS): > 100 µM; GI50 (SF-295 CNS): > 100 µM; TGI (SF-295 CNS): > 100 µM; GI50 (LOX IMVI melanoma): 60.1 µM; TGI (LOX IMVI melanoma): > 100 µM; GI50 (M14 melanoma): > 100 µM; TGI (M14 melanoma): > 100 µM; GI50 (HOP-62 NSCLC): > 100 µM; TGI (HOP-62 NSCLC): > 100 µM; GI50 (PC-3 prostate): 63.8 µM; TGI (PC-3 prostate): > 100 µM; GI50 (SK-MEL-5 melanoma): 64 µM; TGI (SK-MEL-5 melanoma): > 100 µM

Q: Which TGI (NCI/ADR-RES ovarian) does the source give for `COc1nc(Cl)nc(Cl)c1Cl` (tested in a mixture with another compound) here?
A: > 27.7 µM

Q: What about the TGI (SK-OV-3 ovarian) of the same compound?
A: 32.7 µM

Q: What about the TGI (EKVX NSCLC) of the same compound?
A: 1.4 µM

Q: What about the TGI (IGROV1 ovarian) of the same compound?
A: 26.2 µM

Q: What about the TGI (K-562 leukemia) of the same compound?
A: 23.8 µM

Q: And the TGI (MDA-MB-231 breast)?
A: > 39.1 µM

Q: What about the TGI (786-0 renal) of the same compound?
A: > 46.7 µM

Q: What about the TGI (MOLT-4 leukemia) of the same compound?
A: 10.1 µM

Q: What about the TGI (UACC-257 melanoma) of the same compound?
A: 12 µM

Q: And the TGI (SR leukemia)?
A: 4.65 µM

Q: What about the TGI (SN12C renal) of the same compound?
A: 51.6 µM

Q: What about the TGI (CAKI-1 renal) of the same compound?
A: 0.194 µM

Q: What about the TGI (NCI-H522 lung) of the same compound?
A: 1.55 µM

Q: What about the TGI (COLO 205 colon) of the same compound?
A: 26.8 µM

Q: And the TGI (TK-10 renal)?
A: 19 µM

Q: And the TGI (OVCAR-5 ovarian)?
A: 49.9 µM

Q: And the TGI (HOP-92 NSCLC)?
A: 14.9 µM

Q: What about the TGI (NCI-H23 lung) of the same compound?
A: 20.8 µM

Q: What about the TGI (HCT-116 colon) of the same compound?
A: 19.5 µM

Q: And the TGI (SNB-19 CNS)?
A: 18.5 µM

Q: And the TGI (U251 CNS)?
A: 23 µM

Q: And the TGI (MDA-MB-435)?
A: > 36.3 µM

Q: And the TGI (UO-31 renal)?
A: 1.94 µM

Q: And the TGI (OVCAR-8 ovarian)?
A: > 30.8 µM

Q: And the TGI (SW-620 colon)?
A: 20.8 µM

Q: What about the TGI (HCC-2998 colon) of the same compound?
A: 0.672 µM

Q: And the TGI (OVCAR-4 ovarian)?
A: 14.1 µM

Q: And the TGI (A549 NSCLC)?
A: > 66 µM

Q: What about the TGI (HCT-15 colon) of the same compound?
A: 18.7 µM

Q: And the TGI (SK-MEL-28 melanoma)?
A: 62.9 µM

Q: What about the TGI (HS 578T breast) of the same compound?
A: > 100 µM

Q: And the TGI (T-47D breast)?
A: 44.4 µM

Q: What about the TGI (SNB-75 CNS) of the same compound?
A: > 61.4 µM

Q: What about the TGI (OVCAR-3 ovarian) of the same compound?
A: 12.4 µM

Q: And the TGI (ACHN renal)?
A: 17.6 µM

Q: What about the TGI (NCI-H226 lung) of the same compound?
A: 77 µM

Q: And the TGI (SF-539 CNS)?
A: 21.6 µM

Q: And the TGI (MALME-3M melanoma)?
A: 47.3 µM

Q: And the TGI (NCI-H460 lung)?
A: 12.1 µM

Q: What about the TGI (RPMI-8226 leukemia) of the same compound?
A: 5.61 µM

Q: And the TGI (RXF 393 renal)?
A: 31.7 µM

Q: What about the TGI (DU-145 prostate) of the same compound?
A: 15.5 µM

Q: What about the TGI (UACC-62 melanoma) of the same compound?
A: 28.6 µM

Q: What about the TGI (MCF7 breast) of the same compound?
A: 24.2 µM

Q: And the TGI (SK-MEL-2 melanoma)?
A: 22.6 µM

Q: What about the TGI (BT-549 breast) of the same compound?
A: 22.5 µM

Q: What about the TGI (CCRF-CEM leukemia) of the same compound?
A: 12.1 µM

Q: And the TGI (A498 renal)?
A: 37.4 µM

Q: And the TGI (HT29 colon)?
A: 17.9 µM

Q: What about the TGI (SF-268 CNS) of the same compound?
A: > 31.7 µM

Q: What about the TGI (SF-295 CNS) of the same compound?
A: 36.3 µM

Q: What about the TGI (LOX IMVI melanoma) of the same compound?
A: 12.8 µM

Q: What about the TGI (M14 melanoma) of the same compound?
A: 27.6 µM

Q: And the TGI (HOP-62 NSCLC)?
A: 10.3 µM

Q: What about the TGI (PC-3 prostate) of the same compound?
A: 26 µM

Q: What about the TGI (SK-MEL-5 melanoma) of the same compound?
A: 31.5 µM
